{
  "source": "patent US20200164005A1",
  "about": "“PHARMACEUTICAL COMPOSITIONS OF A BILE ACID DERIVATIVE AND MICROBIOME AND USES THEREOF” (Intercept Pharmaceuticals, Inc., priority 2017, published 2020)",
  "key": {"gut microbiome species": {"test_system": "gut microbiome species", "assay": "Shotgun metagenomics of stool: relative abundance of gut microbiome species after OCA treatment", "assay_type": "in vivo, human", "details": "for OCA Response: abundance change of the bacterial species, subjects treated with 10 mg of OCA", "description": "Twenty-four eligible subjects were enrolled and randomized to 1 of 3 treatment groups (5 mg, 10 mg, or 25 mg) in a treatment ratio of 1:1:1. The study comprised single dose and multiple dose phases. The randomized dose administered in the single dose phase was the subject's dose level for the multiple dose phase. A single dose of OCA (5 mg, 10 mg, or 25 mg) was administered on Day 1. On Day 4, the multiple dose phase began at the same dose level (5 mg, 10 mg, or 25 mg), with subjects receiving OCA once daily for 14 days. The last dose was given to subjects on Day 17. Subjects remained at the inpatient trial site from Day 0 until the morning of Day 30, and returned to the study site for collection of a sample on Days 35, 37, 39, and 44.\nStool specimens for microbiota genome testing were collected up to 2 days prior to submitting them on Day 0, on Day 15, 16, or 17 prior to submitting them on the same day, and up to 2 days prior to submitting them on Day 37. One Day 1, pre-dose blood samples were collected, and serial blood samples were obtained from Day 1 to Day 3 following administration on Day 1 (see Table 1). Multiple dose phase started on Day 4 and lasted through Day 17, during which subjects received once daily doses of OCA (5 mg, 10 mg, or 25 mg) and pre-dose blood samples were drawn (see Table 1).\nFor microbiome analysis, stool samples were collected on day 0, day 15 or 16, and day 37. FGF19 and C4\nThe bacterial abundance on species level was generated from MetaPhlAn2 (Segata et al., Nat. Methods 9, 811 (2012)). 341 species were identified from the dataset.\nThe adaptors, human reads contamination, and low quality sequences were removed from the raw sequencing data using software kneaddata. Trimmomatic (Bolger et al., Bioinformatics 30, 2114 (2014)) was invoked by kneaddata for removing adaptor sequence, trimming low quality bases, and removing low quality reads. Bowtie (Langmead and Salzberg, Nat. Methods 9, 357 (2012)) was invoked by kneaddata for human reads detection. • Removing sequencing noise: For each sample, if the abundance of one species was smaller than 0.05% of the maximum abundance of all species in the sample, it was considered as noise, and the abundance of this species in the sample was set as 0. • Imputing missing value (i.e. Os): Because log 2 transformation was needed in further analysis, adjustment factor (e) was added to the abundance matrix, where e equals 50% of the minimum non-zero abundance value of all samples. • Removing low abundance species: A species was removed if the relative abundance was lower than 0.1% in >=95% of samples. 128 species was kept for further analysis.\n• Species differential abundance analysis: The time effect of OCA treatment was studied on three OCA dose groups separately using Friedman rank test. The dose effect of OCA treatment was studied on three time point separately, and Kruskal-Wallis test was used. • Gene differential abundance analysis: For each of the most varying genes, repeated-measure ANOVA was performed to study the time effect and OCA dose effect on gene abundance change.\nAn open label, randomized, single dose and multiple dose trial to assess the pharmacokinetics of obeticholic acid (OCA) in 24 healthy male or female subjects aged 18 to 55 years receiving 5, 10 or 25 mg OCA was conducted. Stool specimens for microbiota genome testing were collected by subjects up to 2 days before Day 0 (T0), […] (T1), and Day 37 (T2). […]"}, "endogenous bile acids": {"test_system": "endogenous bile acids", "assay": "Luminal bile acid concentrations in small intestine and feces of OCA-treated mice", "assay_type": "in vivo", "description": "FIG. 54: Bar graphs showing the concentration of taurocholic acid and taurodeoxycholic acid at proximal small bowel and distal small bowel, or in feces, in samples collected from mice treated with control (methylcellulose) or OCA (10 mg/kg/day) for 14 days, followed by no treatment for additional 14 days. Statistically significant differences based on two-tailed Student t-tests are noted: p<0.05 (*) and p<0.01 (**).\nFIGS. 59A-59E: Effect of OCA administration on luminal bile acid concentrations in the murine small intestine and feces. […] Mean+SE, *p<0.05, **p<0.01, ***p<0.001. FIGS. 59D-59E show heatmaps of luminal bile acid concentrations in the proximal (FIG. 59D) and distal (FIG. 59E) small intestine.\nFor example, Streptococci represent as much as 20% of the human small intestinal microbiota by 16S tagged sequencing (Dlugosz et al., Sci Rep-Uk, 5 (2015)); El Aidy et al., Curr Opin Biotechnol., 32, 14-20 (2015)). Some of these bacteria are environmental organisms used in the manufacturing of food introduced into the small intestine with diet, including Streptococcus thermophilus, Bifidobacterium breve, Lactobacillus casei, and Lactococcus lactis (Brigidi et al., International Journal of Food Microbiology, 81, 203-209 (2003); Derrien and van Hylckama Vlieg, Trends Microbiol., 23, 354-366 (2015); Stiles and Holzapfel, International Journal of Food Microbiology, 36, 1-29 (1997)). To determine whether OCA treatment can alter the gut microbiota composition specifically in the small intestine, mice were treated with OCA for 14 days, the microbiota composition in the proximal and distal small intestine, as well as the stool, and quantified bile acids were characterized. Since OCA was prepared in methylcellulose, an additional methylcellulose control group was included due to its previously described effect on fecal bile acid levels (Cox et al., FASEB J 27, 692-702 (2013))."}},
  "data": [
    {"smiles": "CC[C@H]1[C@@H](O)[C@@H]2[C@H](CC[C@]3(C)[C@@H]([C@H](C)CCC(=O)O)CC[C@@H]23)[C@@]2(C)CC[C@@H](O)C[C@@H]12", "note": "[OCA, 3α,7α-dihydroxy-6α-ethyl-5β-cholan-24-oic acid]", "values": [
      {"measurement": "time-dependent effect of OCA on Streptococcus thermophilus abundance in fecal microbiota", "setting": "gut microbiome species; 10 mg OCA group", "value": "greatest increase"},
      {"measurement": "abundances of all Gram-negative bacteria following OCA treatment", "setting": "gut microbiome species; 10 mg OCA, Table 15", "value": "decreased"},
      {"measurement": "numbers of Lactobacillus casei paracasei and Streptococcus thermophilus upon discontinuation of OCA", "setting": "gut microbiome species; OCA 5 mg, 10 mg, 25 mg", "value": "decreased"},
      {"measurement": "abundance of Lactobacillus casei paracasei and Streptococcus thermophilus in stool over time", "setting": "gut microbiome species; OCA 5 mg, 10 mg, 25 mg, Friedman rank test, p<0.05", "value": "differentially abundant over time in all three OCA dosage groups"},
      {"measurement": "OCA Response", "setting": "gut microbiome species; Alistipes_putredinis", "value": "Decrease"},
      {"measurement": "OCA Response", "setting": "gut microbiome species; Lactococcus_lactis", "value": "Increase"},
      {"measurement": "OCA Response", "setting": "gut microbiome species; Subdoligranulum_unclassified", "value": "Equivocal"},
      {"measurement": "low abundance gram positive organisms with the use of OCA", "setting": "gut microbiome species; day 16", "value": "consistent increase"},
      {"measurement": "OCA dose effect on abundance of Bacteroides uniformis and Streptococcus thermophilus", "setting": "gut microbiome species; day 16 and day 37, Kruskal-Wallis test, p<0.05", "value": "significantly different among dose groups"},
      {"measurement": "low abundance gram positive organisms after OCA was discontinued", "setting": "gut microbiome species; day 37", "value": "decreased to baseline"},
      {"measurement": "abundances of Gram-positive bacterial genera following OCA treatment", "setting": "gut microbiome species; with two exceptions, 10 mg OCA, Table 15", "value": "increased abundances"},
      {"measurement": "OCA in the small intestinal lumen of treated mice", "setting": "endogenous bile acids; 10 mg/kg OCA, 14 days", "value": "detectable"},
      {"measurement": "contribution of OCA to the total concentration of bile acids in the small intestinal lumen", "setting": "endogenous bile acids; 10 mg/kg OCA, 14 days", "value": "contributed minimally"},
      {"measurement": "luminal endogenous primary bile acids in the feces", "setting": "endogenous bile acids; 10 mg/kg OCA, 14 days", "value": "no effect"},
      {"measurement": "luminal endogenous primary bile acids in proximal and distal small intestine", "setting": "endogenous bile acids; 10 mg/kg OCA, 14 days, greatest in proximal small intestine", "value": "significant reduction"},
      {"measurement": "luminal cholic and taurocholic acids", "setting": "endogenous bile acids; 10 mg/kg OCA, 14 days, small intestine", "value": "largest consistent decreases"},
      {"measurement": "levels of taurocholic and taurodeoxycholic acids in proximal and distal small intestine", "setting": "endogenous bile acids; OCA 10 mg/kg/day, day 14", "value": "reduction"},
      {"measurement": "levels of taurocholic and taurodeoxycholic acids in the colon (feces)", "setting": "endogenous bile acids; OCA 10 mg/kg/day, day 14", "value": "not in the colon (feces)"},
      {"measurement": "levels of taurocholic and taurodeoxycholic acids in the proximal small intestine after cessation", "setting": "endogenous bile acids; day 28, two weeks after cessation of OCA", "value": "continued reduction"}
    ]}
  ]
}
